What was measured:
Test in all cases: X-ray crystal structure, soaking, […] Å
Format in all cases: binding
[1] = biological target: T1, Chondroitinase ABC I (cABC-I) (Proteus vulgaris, UniProt P59807); details: soaked at 100 mM; pH 7.5; two molecules in active site cleft
T1 construct: native purification from P. vulgaris cells (CSC as inducer); mature monomer, 997 residues; domains 25-234, 235-617, 618-1021
T1 sequence (P59807 25-1021): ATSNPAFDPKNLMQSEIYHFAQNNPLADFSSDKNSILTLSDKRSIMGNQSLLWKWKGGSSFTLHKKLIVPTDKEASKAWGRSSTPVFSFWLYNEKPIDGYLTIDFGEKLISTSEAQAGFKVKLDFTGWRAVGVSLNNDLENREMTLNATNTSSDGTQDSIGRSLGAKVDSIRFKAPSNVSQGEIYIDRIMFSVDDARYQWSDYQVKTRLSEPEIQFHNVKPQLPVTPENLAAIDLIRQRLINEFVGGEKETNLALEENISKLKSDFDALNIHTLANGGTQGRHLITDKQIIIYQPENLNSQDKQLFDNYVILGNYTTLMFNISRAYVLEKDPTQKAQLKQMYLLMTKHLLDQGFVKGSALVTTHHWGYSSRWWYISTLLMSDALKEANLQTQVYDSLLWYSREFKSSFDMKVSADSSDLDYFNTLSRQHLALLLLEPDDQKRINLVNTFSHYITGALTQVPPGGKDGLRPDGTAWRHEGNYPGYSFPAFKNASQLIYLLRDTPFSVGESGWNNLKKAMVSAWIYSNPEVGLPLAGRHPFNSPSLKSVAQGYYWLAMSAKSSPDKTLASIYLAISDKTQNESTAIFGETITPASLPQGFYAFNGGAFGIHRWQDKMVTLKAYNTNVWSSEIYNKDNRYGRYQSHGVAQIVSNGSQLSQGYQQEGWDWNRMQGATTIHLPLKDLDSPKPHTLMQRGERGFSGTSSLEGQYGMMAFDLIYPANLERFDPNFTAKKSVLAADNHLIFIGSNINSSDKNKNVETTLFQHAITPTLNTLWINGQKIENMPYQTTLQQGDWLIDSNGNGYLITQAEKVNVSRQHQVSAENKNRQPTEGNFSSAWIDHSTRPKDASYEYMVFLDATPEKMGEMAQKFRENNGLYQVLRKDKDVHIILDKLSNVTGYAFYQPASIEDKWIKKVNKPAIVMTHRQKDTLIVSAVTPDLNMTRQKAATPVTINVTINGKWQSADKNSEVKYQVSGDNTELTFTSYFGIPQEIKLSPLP

[2] = biological target: T1, Chondroitinase ABC I (cABC-I); details: soaked at 100 mM; pH 7.5; three molecules in active site cleft
[3] = biological target: T1, Chondroitinase ABC I (cABC-I); details: soaked at 100 mM; pH 7.5; two molecules in active site cleft; remark: listed apart in the source

CC(=O)N[C@H]1C(O)O[C@H](CO)[C@H](O)[C@@H]1O[C@@H]1OC(C(=O)O)=C[C@H](O)[C@H]1O (stereo partly drawn) [ΔDi-0S]
X-ray crystal structure, soaking, 2.50 Å [1]: 7EIS, cABC-I in complex with ΔDi-0S

CC(=O)N[C@H]1C(O)O[C@H](CO)[C@H](OS(=O)(=O)O)[C@@H]1O[C@@H]1OC(C(=O)O)=C[C@H](O)[C@H]1O (stereo partly drawn) [ΔDi-4S]
X-ray crystal structure, soaking, 1.80 Å [2]: 7EIQ, cABC-I in complex with ΔDi-4S

CC(=O)N[C@H]1C(O)O[C@H](COS(=O)(=O)O)[C@H](O)[C@@H]1O[C@@H]1OC(C(=O)O)=C[C@H](O)[C@H]1O (stereo partly drawn) [ΔDi-6S]
X-ray crystal structure, soaking, 1.92 Å [3]: 7EIR, cABC-I in complex with ΔDi-6S

From PMC8684500, “Substrate specificity of Chondroitinase ABC I based on analyses of biochemical reactions and crystal structures in complex with disaccharides” (Glycobiology, 2021)
